Laboratory results from paper PMC4269550, “Lead Optimization of a Pyrazole Sulfonamide Series of Trypanosoma bruceiN-Myristoyltransferase Inhibitors: Identification and Evaluation of CNS Penetrant Compounds as Potential Treatments for Stage 2 Human African Trypanosomiasis” (Journal of Medicinal Chemistry, 2014).

Legend:
[1] = Intrinsic clearance (Cli), mouse liver microsomes; format: in vitro ADME
[2] = tested on: T. b. rhodesiense STIB900; assay: Stage 1 HAT mouse efficacy model, T. b. rhodesiense STIB900; format: in vivo; settings: b.i.d. po for 4 days
Mouse pharmacokinetics = format: in vivo; settings: female, NMRI, whole blood; mouse, 10 mg/kg po; read-out: AUC0–8 (converted)
Experimental: Test compound was dosed as a bolus solution intravenously at 3 mg free base/kg (dose volume, 5 mL/kg; dose vehicle, saline or 5% DMSO; 40% PEG400; 55% saline) to female NMRI mice (n = 3) or dosed orally by gavage as a solution at 10 and/or 50 mg free base/kg (dose volume, 5 mL/kg; dose vehicle, 5% DMSO; 95% distilled water or 5% DMSO; 40% PEG400; 55% distilled water) to female NMRI mice (n = 3/dose level). Female NMRI mice were chosen as these represent the sex and strain used for the stage 1 and stage 2 HAT efficacy models. Blood samples were taken from each mouse at 2 (IV only), 5 (IV only), 15, and 30 min, 1, 2, 4, 6, 8, and 24 (po only) hours postdose and mixed with two volumes of distilled water. After suitable sample preparation, the concentration of test compound in blood was determined by UPLC-MS/MS using a Quattro Premier XE (Waters, USA). Pharmacokinetic parameters were derived from the mean blood concentration time curve using PKsolutions software v 2.0 (Summit Research Services, USA).

P-glycoprotein = assay: Rat brain penetration study +/- GF120918; settings: in vivo
T. b. brucei S427 = assay: Stage 1 HAT mouse efficacy model, T. b. brucei S427; format: in vivo; settings: b.i.d. po, mouse

**Q.** Which results are given for Cc1nn(C)c(C)c1NS(=O)(=O)c1c(Cl)cc(-c2ccnc(N3CCNCC3)c2)cc1Cl [compound 1, 2,6-Dichloro-4-(2-piperazin-1-yl-pyridin-4-yl)-N-(1,3,5-trimethyl-1H-pyrazol-4-yl)-benzenesulfonamide]?
**A.** Cli (mouse) ([1]; Table S1, unit not given): 0.6; Cli (mouse) ([1]; mouse liver microsomes): < 1.0 mL min^–1 g^–1; stage 1 HAT minimal curative dose, T. b. rhodesiense STIB900 [2]: 50 mg/kg; AUC(0-t) (Mouse pharmacokinetics): 6530 ng·h/mL; P-glycoprotein substrate (P-glycoprotein): substrate for P-glycoprotein; stage 1 HAT minimal curative dose, T. b. brucei S427 (T. b. brucei S427): 12.5 mg/kg
